Our source for the IC50 values is patent publication US8017612B2, “Piperazine compound and use thereof as a HCV polymerase inhibitor” (priority 2006, dated 2011).

For assay [1], the target named is T1, HCV polymerase (NS5B) type 1a (Hepatitis C virus genotype 1a, UniProt P26664).
T1 construct: made in house; host or cells: Escherichia coli (by the 'similar method' of the 1b enzyme)
The experiment in a line: Assay of enzyme (HCV polymerase) inhibitory activity, type 1a enzyme. It is filed as biochemical, HCV type 1a (cloned from the blood of patients). Conditions: HCV polymerase inhibitory activity IC50, 1a, type 1a enzyme. In short, it runs like this:
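Reactions ran 60 min at 25° C in 20 mM Tris-HCl pH 7.5, 5 mM MgCl2, 50 mM NaCl, holding genotype 1a NS5B (1.5 μg/ml, Δ47 C-terminus, 6His), substrate RNA 5 μg/ml, UTP 2 μM with tritiated UTP and other NTPs 50 μM. IC50 derived from incorporated radiolabel in filter-trapped RNA relative to uninhibited reaction.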

Assay [2] concerns the target T2, HCV polymerase (NS5B) type 1b (Hepatitis C virus genotype 1b, UniProt P26663).
T2 construct: a region encoding NS5B (J Virol 1991 March, 65(3), 1105-13, 544 amino acids after deletion of 47 amino acids on the C-terminal); 6xHis (C); made in house; host or cells: Escherichia coli
The assay can be described thus: Assay of enzyme (HCV polymerase) inhibitory activity, type 1b enzyme. Conditions: HCV polymerase inhibitory activity IC50, 1b, type 1b enzyme. It is filed as biochemical, HCV BK strain (type 1b). In short, it runs like this: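 IC50 derived from [3H]UTP incorporation into TCA-insoluble RNA, compared with and without test compound. Reaction (25 °C, 60 min, Tris pH 7.5, 5 mM MgCl2): E. coli-expressed 1b NS5B Δ47 with His tag at 0.5 μg/ml, 5 μg/ml run-off substrate RNA, ATP/GTP/CTP 50 μM, UTP 2 μM.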

Molecules are shown by their SMILES.

As a reminder, the IC50 is the concentration needed to halve the response being measured. As to `COc1nnnc2nc(N3CCN(S(=O)(=O)c4ccc(OC(F)(F)F)cc4)[C@@H](C(=O)NCc4ccc(OC(F)(F)F)cc4)C3)sc12` [Example 1035, (R)-4-(4-methoxy-thiazolo[4,5-d][1,2,3]triazin-6-yl)-1-(4-trifluoromethoxy-benzenesulfonyl)-piperazine-2-carboxylic acid 4-trifluoromethoxy-benzylamide], the IC50 in assay [1] and in assay [2] was under 100 nM in each case.

Take `N#Cc1ncc2sc(N3CCN(S(=O)(=O)c4ccc(OC(F)(F)F)cc4)[C@@H](C(=O)NCc4ccc(OC(F)F)cc4)C3)nc2n1` [Example 1036, (R)-4-(5-cyano-thiazolo[4,5-d]pyrimidin-2-yl)-1-(4-trifluoromethoxy-benzenesulfonyl)-piperazine-2-carboxylic acid 4-difluoromethoxy-benzylamide]: the IC50 in assay [1] and in assay [2] was under 100 nM throughout.

For the compound `CCn1ncc2sc(N3CCN(S(=O)(=O)c4ccc(C(F)(F)F)cc4)[C@@H](C(=O)NCc4ccc(OC(F)(F)F)cc4)C3)nc2c1=O` [Example 1037, (R)-4-(5-ethyl-4-oxo-4,5-dihydro-thiazolo[4,5-d]pyridazin-2-yl)-1-(4-trifluoromethyl-benzenesulfonyl)-piperazine-2-carboxylic acid 4-trifluoromethoxy-benzylamide], the IC50 in assay [1] and in assay [2] was under 100 nM in each case.

On to `O=C(NCc1ccc(OC(F)(F)F)cc1)[C@H]1CN(c2nn3c(=O)cc(C(F)(F)F)nc3s2)CCN1S(=O)(=O)c1ccc(OC(F)(F)F)cc1` [Example 1038, (R)-4-(5-oxo-7-trifluoromethyl-5H-[1,3,4]thiadiazolo[3,2-a]pyrimidin-2-yl)-1-(4-trifluoromethoxy-benzenesulfonyl)-piperazine-2-carboxylic acid 4-trifluoromethoxy-benzylamide], for which the IC50 in assay [1] and in assay [2] was 100 to 1000 nM each time.

For the compound `Cc1ncc2sc(N3CCN(S(=O)(=O)c4ccc(OC(F)(F)C(F)F)cc4)[C@@H](C(=O)NCc4ccc(OC(F)F)cc4)C3)nc2n1` [Example 1039, (R)-4-(5-methyl-thiazolo[4,5-d]pyrimidin-2-yl)-1-[4-(1,1,2,2-tetrafluoro-ethoxy)-benzenesulfonyl]-piperazine-2-carboxylic acid 4-difluoromethoxy-benzylamide], the IC50 in assay [1] and in assay [2] was under 100 nM in each case.

Regarding `O=C(NCc1ccc(OC(F)F)cc1F)[C@H]1CN(c2nc3nc(C4CC4)ncc3s2)CCN1S(=O)(=O)c1ccc(C(F)(F)F)cc1` [Example 1040, (R)-4-(5-cyclopropyl-thiazolo[4,5-d]pyrimidin-2-yl)-1-(4-trifluoromethyl-benzenesulfonyl)-piperazine-2-carboxylic acid 4-difluoromethoxy-2-fluoro-benzylamide], the IC50 in assay [1] and in assay [2] was under 100 nM in each case.

Take `CN(C)C(=O)c1ncc2sc(N3CCN(S(=O)(=O)c4ccc(OC(F)(F)F)cc4)[C@@H](C(=O)NCc4ccc(OC(F)(F)F)cc4)C3)nc2n1` [Example 1041, 2-[(R)-4-(4-trifluoromethoxy-benzenesulfonyl)-3-(4-trifluoromethoxy-benzylcarbamoyl)-piperazin-1-yl]-thiazolo[4,5-d]pyrimidine-5-carboxylic acid dimethylamide]: the IC50 in assay [1] and in assay [2] was under 100 nM in each case.

Consider `O=C(NCc1ccc(OC(F)F)cc1F)[C@H]1CN(c2nc3nc(C(F)(F)F)ncc3s2)CCN1S(=O)(=O)c1ccc(C(F)(F)F)cc1` [Example 1042, (R)-1-(4-trifluoromethyl-benzenesulfonyl)-4-(5-trifluoromethyl-thiazolo[4,5-d]pyrimidin-2-yl)-piperazine-2-carboxylic acid 4-difluoromethoxy-2-fluoro-benzylamide], for which the IC50 in assay [1] and in assay [2] was under 100 nM in each case.

On to `COCc1ncc2sc(N3CCN(S(=O)(=O)c4ccc(OC(F)(F)F)cc4)[C@@H](C(=O)NCc4ccc(OC(F)(F)F)cc4)C3)nc2n1` [Example 1043, (R)-4-(5-methoxymethyl-thiazolo[4,5-d]pyrimidin-2-yl)-1-(4-trifluoromethoxy-benzenesulfonyl)-piperazine-2-carboxylic acid 4-trifluoromethoxy-benzylamide], for which the IC50 in assay [1] and in assay [2] was under 100 nM in each case.

As to `O=C(NCc1ccc(OC(F)F)cc1F)[C@H]1CN(c2nc3nc(C(F)(F)F)ncc3s2)CCN1S(=O)(=O)c1ccc(OC(F)(F)F)cc1` [Example 1044, (R)-1-(4-trifluoromethoxy-benzenesulfonyl)-4-(5-trifluoromethyl-thiazolo[4,5-d]pyrimidin-2-yl)-piperazine-2-carboxylic acid 4-difluoromethoxy-2-fluoro-benzylamide], the IC50 in assay [1] and in assay [2] was under 100 nM throughout.

For `O=C(NCc1ccc(OC(F)F)cc1F)[C@H]1CN(c2nc3nc(C4CC4)ncc3s2)CCN1S(=O)(=O)c1ccc(OC(F)(F)F)cc1` [Example 1045, (R)-4-(5-cyclopropyl-thiazolo[4,5-d]pyrimidin-2-yl)-1-(4-trifluoromethoxy-benzenesulfonyl)-piperazine-2-carboxylic acid 4-difluoromethoxy-2-fluoro-benzylamide], the IC50 in assay [1] and in assay [2] was under 100 nM in each case.

As to `CNC(=O)c1ncc2sc(N3CCN(S(=O)(=O)c4ccc(OC(F)(F)F)cc4)[C@@H](C(=O)NCc4ccc(OC(F)(F)F)cc4)C3)nc2n1` [Example 1046, 2-[(R)-4-(4-trifluoromethoxy-benzenesulfonyl)-3-(4-trifluoromethoxy-benzylcarbamoyl)-piperazin-1-yl]-thiazolo[4,5-d]pyrimidine-5-carboxylic acid methylamide], the IC50 in assay [1] and in assay [2] was under 100 nM in each case.

Take `CC(C)(O)c1ncc2sc(N3CCN(S(=O)(=O)c4ccc(OC(F)(F)F)cc4)[C@@H](C(=O)NCc4ccc(OC(F)(F)F)cc4)C3)nc2n1` [Example 1047, (R)-4-[5-(1-hydroxy-1-methyl-ethyl)-thiazolo[4,5-d]pyrimidin-2-yl]-1-(4-trifluoromethoxy-benzenesulfonyl)-piperazine-2-carboxylic acid 4-trifluoromethoxy-benzylamide]: the IC50 in assay [1] and in assay [2] was under 100 nM each time.

`CC(=O)c1ncc2sc(N3CCN(S(=O)(=O)c4ccc(OC(F)(F)F)cc4)[C@@H](C(=O)NCc4ccc(OC(F)(F)F)cc4)C3)nc2n1` [Example 1048, (R)-4-(5-acetyl-thiazolo[4,5-d]pyrimidin-2-yl)-1-(4-trifluoromethoxy-benzenesulfonyl)-piperazine-2-carboxylic acid 4-trifluoromethoxy-benzylamide]: the IC50 in assay [1] and in assay [2] was under 100 nM throughout.

As for `O=C(NCc1ccc(OC(F)(F)F)cc1)[C@H]1CN(c2nn3c(C(F)(F)F)cc(=O)nc3s2)CCN1S(=O)(=O)c1ccc(OC(F)(F)F)cc1` [Example 1049, (R)-4-(7-oxo-5-trifluoromethyl-7H-[1,3,4]thiadiazolo[3,2-a]pyrimidin-2-yl)-1-(4-trifluoromethoxy-benzenesulfonyl)-piperazine-2-carboxylic acid 4-trifluoromethoxy-benzylamide], the IC50 in assay [1] and in assay [2] was under 100 nM each time.
